Assay results from PubChem BioAssay AID2060489 (Molecular Pharmacology Branch, DTP, NCI, 2025).

Test system: 922993-354-T-J3-PDC complex spheroids, viability
Assay: Anticancer human tumor 922993-354-T-J3-PDC patient-derived endometrial carcinoma cell line growth inhibition [GQUAD]
Details: for IC50: curve of first compound; for viability, T/C: stronger effect = lower value
Method in brief: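 Viability of tumor cells grown as complex spheroids with endothelial and stromal cells, exposed to drug combinations. Top concentration at or near clinical Cmax (else 10 microM), diluted in half-log increments.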
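Note: spheroids exposed to compounds for seven days.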
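Throughout, for viability, T/C: 100% = DMSO vehicle control viability.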

CC[C@@]1(O)C(=O)OCc2c1cc1n(c2=O)Cc2cc3c(CN(C)C)c(O)ccc3nc2-1 + Cc1[nH]c2ccc(F)cc2c1-c1nc2c3cccnc3c3ncccc3c2[nH]1
IC50 (second compound 0.0316 µM): > 316 nM | IC50 (second compound 0.1 µM): > 316 nM | IC50 (second compound 0.316 µM): > 316 nM | IC50 (second compound 1 µM): 307 nM | IC50 (second compound 3.16 µM): > 316 nM | IC50 (second compound 10 µM): 282 nM | viability, T/C (second compound 0.0316 µM, first compound 0.000999 µM): 91.8% | viability, T/C (second compound 0.0316 µM, first compound 0.00316 µM): 95.9% | viability, T/C (second compound 0.0316 µM, first compound 0.00999 µM): 109% | viability, T/C (second compound 0.0316 µM, first compound 0.0316 µM): 105% | viability, T/C (second compound 0.0316 µM, first compound 0.0999 µM): 82.4% | viability, T/C (second compound 0.0316 µM, first compound 0.316 µM): 57.1% | viability, T/C (second compound 0.1 µM, first compound 0.000999 µM): 94% | viability, T/C (second compound 0.1 µM, first compound 0.00316 µM): 98.1% | viability, T/C (second compound 0.1 µM, first compound 0.00999 µM): 79.3% | viability, T/C (second compound 0.1 µM, first compound 0.0316 µM): 104% | viability, T/C (second compound 0.1 µM, first compound 0.0999 µM): 77% | viability, T/C (second compound 0.1 µM, first compound 0.316 µM): 55.6% | viability, T/C (second compound 0.316 µM, first compound 0.000999 µM): 125% | viability, T/C (second compound 0.316 µM, first compound 0.00316 µM): 84.3% | viability, T/C (second compound 0.316 µM, first compound 0.00999 µM): 103% | viability, T/C (second compound 0.316 µM, first compound 0.0316 µM): 92.1% | viability, T/C (second compound 0.316 µM, first compound 0.0999 µM): 97.5% | viability, T/C (second compound 0.316 µM, first compound 0.316 µM): 52.4% | viability, T/C (second compound 1 µM, first compound 0.000999 µM): 97.1% | viability, T/C (second compound 1 µM, first compound 0.00316 µM): 106% | viability, T/C (second compound 1 µM, first compound 0.00999 µM): 89.8% | viability, T/C (second compound 1 µM, first compound 0.0316 µM): 104% | viability, T/C (second compound 1 µM, first compound 0.0999 µM): 90.6% | viability, T/C (second compound 1 µM, first compound 0.316 µM): 48.7% | viability, T/C (second compound 3.16 µM, first compound 0.000999 µM): 74.5% | viability, T/C (second compound 3.16 µM, first compound 0.00316 µM): 108% | viability, T/C (second compound 3.16 µM, first compound 0.00999 µM): 93.1% | viability, T/C (second compound 3.16 µM, first compound 0.0316 µM): 93.3% | viability, T/C (second compound 3.16 µM, first compound 0.0999 µM): 89.5% | viability, T/C (second compound 3.16 µM, first compound 0.316 µM): 67.4% | viability, T/C (second compound 10 µM, first compound 0.000999 µM): 134% | viability, T/C (second compound 10 µM, first compound 0.00316 µM): 91.1% | viability, T/C (second compound 10 µM, first compound 0.00999 µM): 109% | viability, T/C (second compound 10 µM, first compound 0.0316 µM): 97.2% | viability, T/C (second compound 10 µM, first compound 0.0999 µM): 74.6% | viability, T/C (second compound 10 µM, first compound 0.316 µM): 45.2%
